Read-outs that look alike come from different tables or passages of the source.
Columns and labels:
[1] = Water solubility by quantitative 1H NMR of saturated solution; format: physicochemical; conditions: saturated solution in D2O, heated to 40 °C and sonicated 90 min, cooled to room temperature, quantitative 1HNMR vs Me2SO2
Procedure: (§1) For determining the solubility of investigated compounds, 5 mg of the selected gold(I) complex was suspended in an Eppendorf test tube with 300 μL of D2O and 300 μL of a Me2SO2/D2O solution 6.94 mM (Me2SO2 final conc. 3.47 mM). The suspension was heated to 40 °C and sonicated for 90 min. The resulting saturated solution was left to cool to room temperature, decanted, transferred to an NMR tube and then analyzed through quantitative ^1HNMR spectroscopy (tilt angle = 45°; recycle delay = 4 s; number of scans = 16). The concentration (solubility) was calculated by the relative integral (related to phosphine or phosphite -CH3 groups) with respect to Me2SO2 singlet (δ = 3.14 ppm). LogP values were determined through a modification of the shake-flask method reported in [22]. More precisely, in a 15 mL Falcon tube, roughly 2 mg of the sample was added in 2 mL of n-octanol-saturated water and 2 mL of water-saturated n-octanol. The mixture was hand shaken for ten minutes, and then 0.5 mL of each phase were moved in two different mineralization tubes together with 1 mL of metal-free concentrated nitric acid. The mixtures were heated overnight at 90 °C, then diluted with 4.5 mL of ultrapure water. The gold concentration in each sample was determined through ICP-OES and the respective LogP values were calculated through the ratio between octanol and water gold concentrations.

[2] = design: method as in PMID 29057040; conditions: reported values; cited from earlier work
[3] = LogP, modified shake-flask method with ICP-OES gold determination; format: physicochemical; conditions: n-octanol/water, gold concentration by ICP-OES
Procedure: as §1

[4] = test system: A2780 ovarian cancer cells; assay: MTT cytotoxicity assay, A2780; format: cell-based, human; conditions: A2780, 72 h of treatment, three independent experiments
Procedure: (§2) RPMI 1640 cell culture medium, fetal bovine serum (FBS), and phosphate-buffered saline (PBS) were obtained from Euroclone (Milan, Italy). Thiazolyl blue tetrazolium bromide (MTT) was obtained from Merck Life Science (Milan, Italy). The human ovarian cancer cell lines A2780, A2780/CDDP-R (cisplatin-resistant) and SKOV3 were obtained from ATCC. Cell lines were maintained in RPMI-1640 supplemented with 10% fetal calf serum (FCS) and antibiotics (penicillin, 100 U/mL; streptomycin, 100 μg/mL) at 37 °C in a 5% CO2 humidified atmosphere and subcultured twice weekly. Split 1:5 (3–6 × 10^4 cells per mL).
(§3) The cytotoxic effects of auranofin analogues on ovarian cancer cell lines were determined by using the colourimetric MTT (3-(4,5-dimethylthiazol-2-yl)-2,5-diphenyltetrazolium bromide) assay. Viable cells can metabolize MTT into formazan, a blue-coloured compound that is detectable at 595 nm. […] Following precipitation, blue formazan was dissolved in 100 µL of DMSO, and the optical density was read in a microplate reader interfaced with Microplate Manager/PV version 4.0 software (BioRad Laboratories, Hercules, CA, USA). From the absorbance measurements, the half-maximal inhibitory concentration (IC50) value of each compound on ovarian cancer cells was calculated using GraphPad Prism software version 6.0 (Graphpad Holdings, LLC, Boston, MA, USA). […]

[5] = test system: cisplatin-resistant A2780 (A2780R) ovarian cancer cells; assay: MTT cytotoxicity assay, A2780R; format: cell-based, human; conditions: 72 h of treatment, three independent experiments
Procedure: as §2, §3

[6] = test system: SKOV-3 ovarian cancer cells; assay: MTT cytotoxicity assay, SKOV-3; format: cell-based, human; conditions: SKOV-3, 72 h of treatment, three independent experiments
Procedure: as §2, §3

[7] = test system: thioredoxin reductase (TrxR); conditions: A2780 cells, 24 h of treatment at the 72 h exposure IC50 dose
Procedure: The analysis was performed in triplicate.
Experiments were performed in triplicate.

[8] = test system: thioredoxin reductase (TrxR); design: method as in PMID 32497830; conditions: auranofin, previously demonstrated; cited from earlier work

SMILES	Water solubility [1] [millimolar]	LogP [2]	LogP [3]	IC50 [4] [µM]	IC50 [5] [µM]	IC50 [6] [µM]	residual TrxR enzyme activity with respect to controls [7]	inhibition of TrxR activity [8]
CCP(CC)CC.[Au+].[Cl-] [Au(PEt3)Cl]	0.68	1.7						
CC[P](CC)(CC)[Au][I] [Au(PEt3)I]	0.08	4.6						
CO[PH](OC)(OC)[Au][S]C1OC(COC(C)=O)C(OC(C)=O)C(OC(C)=O)C1OC(C)=O (stereo not shown) [AuP(OCH3)3SAtg]	2.76		−0.7	1.26 ± 0.22	2.98 ± 0.23	2.44 ± 0.32	about 55%	
CC(=O)OC[C@H]1O[C@@H]([S-])[C@H](OC(C)=O)[C@@H](OC(C)=O)[C@@H]1OC(C)=O.CCP(CC)CC.[Au+] [auranofin, 1-Thio-β-D-glucopyranosatotriethylphosphine gold-2,3,4,6-tetraacetate]	0.34	1.6						40–50%

Source: publication PMC9920260, “Chemical Modification of Auranofin Yields a New Family of Anticancer Drug Candidates: The Gold(I) Phosphite Analogues” (Molecules, 2023)
